Reference: US20250243196A1, “CITRON KINASE INHIBITORS” (The Cleveland Clinic Foundation, priority 2021, published 2025)

Columns and labels:
Type in all cases: biochemical
[1] = target: PKAα (Homo sapiens (Human), UniProt P17612); experiment: KinaseProfiler radiometric assay (14-440KP); conditions: mean of at least two independent experiments
Text: (§1) In another aspect, disclosed is a method of inhibiting citron kinase in a sample, comprising contacting the sample with a compound described herein (e.g., a compound of formula (I) or a pharmaceutically acceptable salt thereof), or a pharmaceutical composition described herein (e.g., a pharmaceutical composition comprising a compound of formula (I) or a pharmaceutically acceptable salt thereof), in an amount effective to inhibit citron kinase. In some embodiments, the step of contacting the sample with the compound comprises administering the compound to a subject (e.g., a subject) suffering from cancer. Methods of determining kinase inhibition are well known in the art. For example, kinase activity of an enzyme and the inhibitory capacity of a test compound can be determined by measuring enzyme specific phosphorylation of a substrate. Commercial assays and kits can be employed. For example, kinase inhibition can be determined using a radiometric binding assay, such as using KinaseProfiler™ technology (Eurofins Discovery). This assay method directly detects product formation without the use of modified substrates or coupling enzymes. Test compounds are incubated with kinase, substrate, required cofactors and radioisotope labeled ATP. Following incubation, unreacted radioactive ATP is removed by washing and incorporation of the radiolabeled phosphate into the kinase substrate is assayed to detect phosphoryltransferase activity, which is directly proportional to the amount of phosphorylated substrate. Inhibition of the kinase by a kinase inhibitor prevents phosphorylation of the substrate and thereby limits the incorporation of radiolabeled phosphate. Such an assay is compatible with a microwell assay format, allowing simultaneous determination of IC50 of multiple compounds.
(§2) The effect of various compounds on the inhibition of other kinases has also been determined. Table 2 reports measured IC50 values; value units are nanomolar inhibition.

[2] = target: ROCK-2 (Homo sapiens (Human), UniProt O75116); experiment: KinaseProfiler radiometric assay (14-451KP); conditions: mean of at least two independent experiments
Text: as §1, §2

[3] = target: BIKE(h) (Homo sapiens (Human), UniProt Q9NSY1); experiment: KinaseProfiler panel; set-up: dose or concentration left out as unconfirmed; conditions: activity remaining
[4] = target: BrSK1(h) (Homo sapiens (Human), UniProt Q8TDC3); experiment: KinaseProfiler panel; set-up: dose or concentration left out as unconfirmed; conditions: activity remaining
[5] = target: c-RAF(h) (Homo sapiens (Human), UniProt P04049); experiment: KinaseProfiler panel; set-up: dose or concentration left out as unconfirmed; conditions: activity remaining
[6] = target: CaMKIIγ(h) (Homo sapiens (Human), UniProt Q13555); experiment: KinaseProfiler panel; set-up: dose or concentration left out as unconfirmed; conditions: activity remaining
[7] = target: CDK5/p35(h) (Homo sapiens (Human), UniProt Q00535); experiment: KinaseProfiler panel; set-up: dose or concentration left out as unconfirmed; conditions: activity remaining
[8] = target: CDKL1(h) (Homo sapiens (Human), UniProt Q00532); experiment: KinaseProfiler panel; set-up: dose or concentration left out as unconfirmed; conditions: activity remaining
[9] = target: CDKL3(h) (Homo sapiens (Human), UniProt Q8IVW4); experiment: KinaseProfiler panel; set-up: dose or concentration left out as unconfirmed; conditions: activity remaining
Chain of CDKL3(h) (Q8IVW4 whole entry): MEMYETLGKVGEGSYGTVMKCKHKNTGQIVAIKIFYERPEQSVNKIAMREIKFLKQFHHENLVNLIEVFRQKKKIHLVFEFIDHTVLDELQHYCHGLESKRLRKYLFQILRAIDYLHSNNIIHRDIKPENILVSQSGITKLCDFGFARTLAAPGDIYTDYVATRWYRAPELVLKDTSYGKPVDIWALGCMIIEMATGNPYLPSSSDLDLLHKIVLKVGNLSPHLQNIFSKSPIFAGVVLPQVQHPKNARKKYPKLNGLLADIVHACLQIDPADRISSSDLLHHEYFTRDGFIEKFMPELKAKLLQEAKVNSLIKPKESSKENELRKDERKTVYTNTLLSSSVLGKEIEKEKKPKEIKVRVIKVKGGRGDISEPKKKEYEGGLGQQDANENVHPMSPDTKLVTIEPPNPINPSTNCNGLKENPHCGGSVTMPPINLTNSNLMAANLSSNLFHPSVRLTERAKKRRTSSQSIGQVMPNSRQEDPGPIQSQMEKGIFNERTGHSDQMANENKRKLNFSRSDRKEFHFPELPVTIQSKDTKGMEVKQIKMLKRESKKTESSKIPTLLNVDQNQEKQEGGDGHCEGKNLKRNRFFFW

[10] = target: CHK1(h) (Homo sapiens (Human), UniProt O14757); experiment: KinaseProfiler panel; set-up: dose or concentration left out as unconfirmed; conditions: activity remaining
[11] = target: CK2(h) (Homo sapiens (Human), UniProt P68400); experiment: KinaseProfiler panel; set-up: dose or concentration left out as unconfirmed; conditions: activity remaining
[12] = target: CLK4(h) (Homo sapiens (Human), UniProt Q9HAZ1); experiment: KinaseProfiler panel; set-up: dose or concentration left out as unconfirmed; conditions: activity remaining
[13] = target: DYRK1A(h) (Homo sapiens (Human), UniProt Q13627); experiment: KinaseProfiler panel; set-up: dose or concentration left out as unconfirmed; conditions: activity remaining
[14] = target: EphA4(h) (Homo sapiens (Human), UniProt P54764); experiment: KinaseProfiler panel; set-up: dose or concentration left out as unconfirmed; conditions: activity remaining
[15] = target: IR(h), activated (Homo sapiens (Human), UniProt P06213); experiment: KinaseProfiler panel; set-up: dose or concentration left out as unconfirmed; conditions: activity remaining
Chain of IR(h), activated (P06213 28-1382): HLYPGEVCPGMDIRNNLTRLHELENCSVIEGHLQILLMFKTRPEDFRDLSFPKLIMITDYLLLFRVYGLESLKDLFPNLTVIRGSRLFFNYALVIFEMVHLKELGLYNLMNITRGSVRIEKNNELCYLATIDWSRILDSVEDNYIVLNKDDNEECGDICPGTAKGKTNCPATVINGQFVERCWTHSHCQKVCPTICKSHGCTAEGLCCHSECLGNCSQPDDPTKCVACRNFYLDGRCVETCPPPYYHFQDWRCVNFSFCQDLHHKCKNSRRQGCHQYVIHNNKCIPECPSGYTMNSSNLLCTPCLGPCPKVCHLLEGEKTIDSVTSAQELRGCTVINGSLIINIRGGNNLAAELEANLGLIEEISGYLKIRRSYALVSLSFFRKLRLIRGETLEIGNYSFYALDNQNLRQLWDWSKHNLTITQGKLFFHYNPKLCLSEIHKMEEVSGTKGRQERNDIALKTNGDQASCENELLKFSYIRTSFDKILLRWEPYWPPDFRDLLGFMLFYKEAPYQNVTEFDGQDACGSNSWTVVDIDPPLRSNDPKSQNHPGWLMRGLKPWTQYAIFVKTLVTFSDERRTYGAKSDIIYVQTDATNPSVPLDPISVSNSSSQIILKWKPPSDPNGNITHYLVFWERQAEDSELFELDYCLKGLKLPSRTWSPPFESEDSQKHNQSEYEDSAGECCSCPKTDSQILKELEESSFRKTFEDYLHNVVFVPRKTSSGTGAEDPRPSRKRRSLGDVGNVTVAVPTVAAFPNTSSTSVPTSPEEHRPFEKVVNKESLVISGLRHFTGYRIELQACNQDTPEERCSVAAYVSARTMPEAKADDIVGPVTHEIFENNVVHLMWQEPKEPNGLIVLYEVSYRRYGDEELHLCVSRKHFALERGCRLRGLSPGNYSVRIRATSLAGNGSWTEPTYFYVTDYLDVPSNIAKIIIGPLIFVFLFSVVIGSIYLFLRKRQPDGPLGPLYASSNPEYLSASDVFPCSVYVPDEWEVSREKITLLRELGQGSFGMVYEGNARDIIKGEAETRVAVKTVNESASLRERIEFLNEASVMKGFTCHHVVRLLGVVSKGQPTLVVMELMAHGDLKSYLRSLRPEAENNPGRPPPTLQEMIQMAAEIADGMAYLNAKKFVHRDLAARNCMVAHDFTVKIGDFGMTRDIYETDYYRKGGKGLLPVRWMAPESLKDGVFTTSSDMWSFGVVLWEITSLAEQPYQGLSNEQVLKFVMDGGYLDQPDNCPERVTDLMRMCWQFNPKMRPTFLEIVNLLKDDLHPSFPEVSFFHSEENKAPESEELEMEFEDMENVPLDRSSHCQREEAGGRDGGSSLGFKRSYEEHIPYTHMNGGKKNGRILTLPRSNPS

[16] = target: MOK(h) (Homo sapiens (Human), UniProt Q9UQ07); experiment: KinaseProfiler panel; conditions: activity remaining
[17] = target: PDK1(h) (Homo sapiens (Human), UniProt O15530); experiment: KinaseProfiler panel; set-up: dose or concentration left out as unconfirmed; conditions: activity remaining
[18] = target: PI3 Kinase (p110b/p85a)(h) (Homo sapiens (Human), UniProt P42338); experiment: KinaseProfiler panel; set-up: dose or concentration left out as unconfirmed; conditions: activity remaining
[19] = target: PI3KC2a(h) (Homo sapiens (Human), UniProt O00443); experiment: KinaseProfiler panel; set-up: dose or concentration left out as unconfirmed; conditions: activity remaining
Chain of PI3KC2a(h) (O00443 whole entry): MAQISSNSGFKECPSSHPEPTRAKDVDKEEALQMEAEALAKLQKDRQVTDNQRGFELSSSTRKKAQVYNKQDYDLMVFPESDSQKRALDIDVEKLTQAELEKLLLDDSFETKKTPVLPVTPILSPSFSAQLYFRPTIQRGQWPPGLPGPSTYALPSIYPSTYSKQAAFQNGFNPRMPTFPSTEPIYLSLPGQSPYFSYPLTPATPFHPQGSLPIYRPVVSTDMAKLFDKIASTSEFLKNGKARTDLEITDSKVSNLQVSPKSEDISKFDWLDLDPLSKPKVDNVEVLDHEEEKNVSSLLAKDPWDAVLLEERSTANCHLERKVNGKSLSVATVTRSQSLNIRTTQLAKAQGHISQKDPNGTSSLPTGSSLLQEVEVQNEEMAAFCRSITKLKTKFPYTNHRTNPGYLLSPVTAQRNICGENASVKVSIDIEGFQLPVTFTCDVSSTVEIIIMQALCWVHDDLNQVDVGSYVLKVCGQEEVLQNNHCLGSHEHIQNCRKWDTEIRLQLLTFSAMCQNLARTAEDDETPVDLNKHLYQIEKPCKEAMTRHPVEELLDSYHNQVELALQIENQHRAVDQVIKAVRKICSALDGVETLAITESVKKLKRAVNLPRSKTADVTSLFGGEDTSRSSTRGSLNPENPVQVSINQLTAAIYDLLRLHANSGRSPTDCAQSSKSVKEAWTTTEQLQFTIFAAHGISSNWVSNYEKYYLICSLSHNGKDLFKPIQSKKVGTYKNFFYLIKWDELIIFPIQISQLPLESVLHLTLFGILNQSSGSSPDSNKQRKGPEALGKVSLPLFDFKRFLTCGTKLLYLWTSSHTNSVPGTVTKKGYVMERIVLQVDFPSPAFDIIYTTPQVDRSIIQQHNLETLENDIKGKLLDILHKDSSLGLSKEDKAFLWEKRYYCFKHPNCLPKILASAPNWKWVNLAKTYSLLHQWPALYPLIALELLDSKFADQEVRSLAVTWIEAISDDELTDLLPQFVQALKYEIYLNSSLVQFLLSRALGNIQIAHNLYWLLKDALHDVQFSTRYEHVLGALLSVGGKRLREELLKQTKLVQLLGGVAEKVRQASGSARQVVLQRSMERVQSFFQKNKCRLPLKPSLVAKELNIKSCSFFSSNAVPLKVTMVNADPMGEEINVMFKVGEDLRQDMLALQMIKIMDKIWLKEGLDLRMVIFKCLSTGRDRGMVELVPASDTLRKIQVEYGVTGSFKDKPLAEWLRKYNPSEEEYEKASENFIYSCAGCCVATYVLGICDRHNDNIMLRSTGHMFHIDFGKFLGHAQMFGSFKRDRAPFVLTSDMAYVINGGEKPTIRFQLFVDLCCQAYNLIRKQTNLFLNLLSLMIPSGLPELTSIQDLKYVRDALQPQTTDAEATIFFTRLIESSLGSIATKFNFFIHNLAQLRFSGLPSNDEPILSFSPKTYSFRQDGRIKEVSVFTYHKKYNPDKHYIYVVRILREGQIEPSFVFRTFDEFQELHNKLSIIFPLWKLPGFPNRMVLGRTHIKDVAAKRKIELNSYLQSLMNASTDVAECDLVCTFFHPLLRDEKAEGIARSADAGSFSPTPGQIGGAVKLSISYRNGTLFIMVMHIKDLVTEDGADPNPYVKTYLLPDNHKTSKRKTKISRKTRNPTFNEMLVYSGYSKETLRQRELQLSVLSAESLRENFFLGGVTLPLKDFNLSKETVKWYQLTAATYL

[20] = target: Pim-2(h) (Homo sapiens (Human), UniProt Q9P1W9); experiment: KinaseProfiler panel; set-up: dose or concentration left out as unconfirmed; conditions: activity remaining
Chain of Pim-2(h) (Q9P1W9 whole entry): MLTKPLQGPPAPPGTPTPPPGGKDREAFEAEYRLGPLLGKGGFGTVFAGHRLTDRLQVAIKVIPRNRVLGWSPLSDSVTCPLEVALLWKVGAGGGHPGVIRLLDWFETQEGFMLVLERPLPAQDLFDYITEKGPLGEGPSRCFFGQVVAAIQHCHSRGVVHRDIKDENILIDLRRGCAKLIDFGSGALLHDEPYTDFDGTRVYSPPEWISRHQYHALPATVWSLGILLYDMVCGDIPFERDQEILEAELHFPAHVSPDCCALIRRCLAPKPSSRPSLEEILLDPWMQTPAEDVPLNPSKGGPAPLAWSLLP

[21] = target: PIP5K1g(h) (Homo sapiens (Human), UniProt O60331); experiment: KinaseProfiler panel; conditions: activity remaining
[22] = target: Rse(h) (Homo sapiens (Human), UniProt Q06418); experiment: KinaseProfiler panel; set-up: dose or concentration left out as unconfirmed; conditions: activity remaining
Chain of Rse(h) (Q06418 41-890): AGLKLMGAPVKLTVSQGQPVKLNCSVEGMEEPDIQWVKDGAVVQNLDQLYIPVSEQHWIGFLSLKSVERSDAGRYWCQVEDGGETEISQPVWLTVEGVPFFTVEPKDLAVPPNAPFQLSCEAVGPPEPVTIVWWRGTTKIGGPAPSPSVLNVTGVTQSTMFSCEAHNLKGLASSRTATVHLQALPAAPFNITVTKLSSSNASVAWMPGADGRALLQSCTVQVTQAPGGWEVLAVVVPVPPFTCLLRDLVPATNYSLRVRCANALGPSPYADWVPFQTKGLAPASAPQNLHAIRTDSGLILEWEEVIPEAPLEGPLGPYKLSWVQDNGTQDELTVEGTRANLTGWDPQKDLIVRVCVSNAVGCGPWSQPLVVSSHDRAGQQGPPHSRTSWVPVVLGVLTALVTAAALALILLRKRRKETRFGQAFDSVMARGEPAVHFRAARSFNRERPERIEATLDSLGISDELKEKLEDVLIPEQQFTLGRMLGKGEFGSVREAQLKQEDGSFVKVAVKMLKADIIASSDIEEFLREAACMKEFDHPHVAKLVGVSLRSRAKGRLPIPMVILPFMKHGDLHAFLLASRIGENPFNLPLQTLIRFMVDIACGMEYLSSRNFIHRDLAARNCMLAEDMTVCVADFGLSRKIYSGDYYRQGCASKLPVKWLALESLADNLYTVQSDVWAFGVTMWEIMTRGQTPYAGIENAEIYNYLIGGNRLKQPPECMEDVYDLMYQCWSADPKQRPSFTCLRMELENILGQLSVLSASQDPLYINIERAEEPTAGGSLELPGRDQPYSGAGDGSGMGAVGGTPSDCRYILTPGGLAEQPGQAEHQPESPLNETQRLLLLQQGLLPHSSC

[23] = target: Syk(h) (Homo sapiens (Human), UniProt P43405); experiment: KinaseProfiler panel; set-up: dose or concentration left out as unconfirmed; conditions: activity remaining
[24] = target: TLK2(h) (Homo sapiens (Human), UniProt Q86UE8); experiment: KinaseProfiler panel; conditions: activity remaining
[25] = target: TTBK1(h) (Homo sapiens (Human), UniProt Q5TCY1); experiment: KinaseProfiler panel; set-up: dose or concentration left out as unconfirmed; conditions: activity remaining
[26] = target: TYK2(h) (Homo sapiens (Human), UniProt P29597); experiment: KinaseProfiler panel; set-up: dose or concentration left out as unconfirmed; conditions: activity remaining

Cc1cc2c(-c3ccc(NC(=O)[C@H](N)CC(C)(C)C)cc3C)ccnc2[nH]1 [Compound F-90, (2R)-2-Amino-4,4-dimethyl-N-[3-methyl-4-(2-methyl-1H-pyrrolo[2,3-b]pyridin-4-yl)phenyl]pentanamide]
IC50 [1]: > 3 µM
IC50 [2]: > 3 µM
% Activity [3]: 50%
% Activity [4]: 96%
% Activity [5]: 106%
% Activity [6]: 106%
% Activity [7]: 79%
% Activity [8]: 99%
% Activity [9]: 79%
% Activity [10]: 108%
% Activity [11]: 112%
% Activity [12]: 85%
% Activity [13]: 112%
% Activity [14]: 92%
% Activity [15]: 92%
% Activity [16]: 90%
% Activity [17]: 105%
% Activity [18]: 102%
% Activity [19]: 102%
% Activity [20]: 117%
% Activity [21]: 102%
% Activity [22]: 129%
% Activity [23]: 66%
% Activity [24]: 92%
% Activity [25]: 96%
% Activity [26]: 103%
